According to patent US20230151049A1, “Compounds Useful in HIV Therapy” (priority 2020, published 2023):
Where two headings read alike, the source gives them in different places.

Experiment: in vivo
Conditions: for concentration at 1 day: day 1
Text: General Protocol for Prodrugs Rat PK Studies Conducted at ChemPartner, China
A total of three naïve male Wistar Han rats, 200-250 g, were received from Beijing VR Laboratory Animal Co. LTD. Following an acclimation period, the animals were assigned to the study based on acceptable health as determined by a staff veterinarian and catheter patency. Fasting of the animals before or after dosing was not required.
On Day 1, each animal received a single intramuscular injection of prepared test article at a target dose level of 20 mg/kg equivalent of EFdA and at a dose volume of 2 mL/kg. The injection sites were at gastrocnemius and identified with an indelible marker for daily monitoring during the study. The animals were manually restrained for dosing and were not sedated. The dose suspension was mixed well by inversion before each dose to ensure homogeneity. […] In addition, all animals are monitored twice daily by the veterinary staff for clinical abnormalities.
Blood samples were collected from the study animals as detailed in the sample collection Table 6 below
Each blood sample for PK (200 μL) was collected from tail vein. The blood was transferred to a tube containing NaF/Na2EDTA anticoagulant and inverted several times to mix. Draw 150 μL whole blood from the tube, add 150 uL 100 mM ammonium acetate, pH 4 buffer and mix well. The resulting blood samples were transferred to individual polypropylene tubes and immediately placed on dry ice until storage at nominally −80° C. prior to LC-MS/MS analysis.

[1] = day 63, single IM Example 11A 20 mg/kg equivalent of EFdA
[2] = day 70, single IM Example 11A 20 mg/kg equivalent of EFdA
[3] = day 77, single IM Example 11A 20 mg/kg equivalent of EFdA
[4] = day 84, single IM Example 11A 20 mg/kg equivalent of EFdA
[5] = day 91, single IM Example 11A 20 mg/kg equivalent of EFdA

C#C[C@]1(COP(=O)(N[C@@H](Cc2ccccc2)C(=O)OCCCCCCCCCCCC)OCC(=O)OCCCCCCCCCCCC)O[C@@H](n2cnc3c(N)nc(F)nc32)C[C@@H]1O (single isomer, unassigned) [Example 11A]
Mean concentration of EFdA (day 21, single IM Example 11A 20 mg/kg equivalent of EFdA): BQL (BQL = below quantification limit, 0.3-0.5 ng/mL for Example 11A and 0.1-0.3 ng/mL for EFdA) | Mean concentration of EFdA (day 28, single IM Example 11A 20 mg/kg equivalent of EFdA): BQL (BQL = below quantification limit, 0.3-0.5 ng/mL for Example 11A and 0.1-0.3 ng/mL for EFdA) | Mean concentration of EFdA (day 35, single IM Example 11A 20 mg/kg equivalent of EFdA): BQL (BQL = below quantification limit, 0.3-0.5 ng/mL for Example 11A and 0.1-0.3 ng/mL for EFdA) | Mean concentration of EFdA (day 42, single IM Example 11A 20 mg/kg equivalent of EFdA): BQL (BQL = below quantification limit, 0.3-0.5 ng/mL for Example 11A and 0.1-0.3 ng/mL for EFdA) | Mean concentration of EFdA (day 49, single IM Example 11A 20 mg/kg equivalent of EFdA): BQL (BQL = below quantification limit, 0.3-0.5 ng/mL for Example 11A and 0.1-0.3 ng/mL for EFdA) | Mean concentration of EFdA (day 56, single IM Example 11A 20 mg/kg equivalent of EFdA): BQL (BQL = below quantification limit, 0.3-0.5 ng/mL for Example 11A and 0.1-0.3 ng/mL for EFdA) | Mean concentration of EFdA [1]: BQL (BQL = below quantification limit, 0.3-0.5 ng/mL for Example 11A and 0.1-0.3 ng/mL for EFdA) | Mean concentration of Example 11A [1]: BQL (BQL = below quantification limit, 0.3-0.5 ng/mL for Example 11A and 0.1-0.3 ng/mL for EFdA) | Mean concentration of EFdA [2]: BQL (BQL = below quantification limit, 0.3-0.5 ng/mL for Example 11A and 0.1-0.3 ng/mL for EFdA) | Mean concentration of Example 11A [2]: BQL (BQL = below quantification limit, 0.3-0.5 ng/mL for Example 11A and 0.1-0.3 ng/mL for EFdA) | Mean concentration of EFdA [3]: BQL (BQL = below quantification limit, 0.3-0.5 ng/mL for Example 11A and 0.1-0.3 ng/mL for EFdA) | Mean concentration of Example 11A [3]: BQL (BQL = below quantification limit, 0.3-0.5 ng/mL for Example 11A and 0.1-0.3 ng/mL for EFdA) | Mean concentration of EFdA [4]: BQL (BQL = below quantification limit, 0.3-0.5 ng/mL for Example 11A and 0.1-0.3 ng/mL for EFdA) | Mean concentration of Example 11A [4]: BQL (BQL = below quantification limit, 0.3-0.5 ng/mL for Example 11A and 0.1-0.3 ng/mL for EFdA) | Mean concentration of EFdA [5]: BQL (BQL = below quantification limit, 0.3-0.5 ng/mL for Example 11A and 0.1-0.3 ng/mL for EFdA) | Mean concentration of Example 11A [5]: BQL (BQL = below quantification limit, 0.3-0.5 ng/mL for Example 11A and 0.1-0.3 ng/mL for EFdA) | concentration at 1 day (male, Wistar Han, rat, whole blood, intramuscular, single IM Example 11A 20 mg/kg equivalent of EFdA, read-out: Mean concentration of Example 11A): 207 ng/mL | concentration at 7 day (male, Wistar Han, rat, whole blood, intramuscular, day 7, single IM Example 11A 20 mg/kg equivalent of EFdA, read-out: Mean concentration of Example 11A): 6.93 ng/mL | concentration at 14 day (male, Wistar Han, rat, whole blood, intramuscular, day 14, single IM Example 11A 20 mg/kg equivalent of EFdA, read-out: Mean concentration of Example 11A): 0.991 ng/mL | concentration at 21 day (male, Wistar Han, rat, whole blood, intramuscular, day 21, single IM Example 11A 20 mg/kg equivalent of EFdA, read-out: Mean concentration of Example 11A): 2.68 ng/mL | concentration at 28 day (male, Wistar Han, rat, whole blood, intramuscular, day 28, single IM Example 11A 20 mg/kg equivalent of EFdA, read-out: Mean concentration of Example 11A): 2 ng/mL | concentration at 35 day (male, Wistar Han, rat, whole blood, intramuscular, day 35, single IM Example 11A 20 mg/kg equivalent of EFdA, read-out: Mean concentration of Example 11A): 1.35 ng/mL | concentration at 42 day (male, Wistar Han, rat, whole blood, intramuscular, day 42, single IM Example 11A 20 mg/kg equivalent of EFdA, read-out: Mean concentration of Example 11A): 1.03 ng/mL | concentration at 49 day (male, Wistar Han, rat, whole blood, intramuscular, day 49, single IM Example 11A 20 mg/kg equivalent of EFdA, read-out: Mean concentration of Example 11A): 0.929 ng/mL | concentration at 56 day (male, Wistar Han, rat, whole blood, intramuscular, day 56, single IM Example 11A 20 mg/kg equivalent of EFdA, read-out: Mean concentration of Example 11A): 0.95 ng/mL

C#C[C@]1(COP(=O)(N[C@@H](Cc2cc(F)cc(F)c2)C(=O)OCCCCCCCCCCCCCCCCCCCCCC)Oc2ccccc2)O[C@@H](n2cnc3c(N)nc(F)nc32)C[C@@H]1O (single isomer, unassigned) [Example 42B]
Mean concentration of EFdA (day 7, single IM Example 42B 64 mg/kg): BQL (BQL = below quantification limit, 0.3 ng/mL for both) | Mean concentration of EFdA (day 14, single IM Example 42B 64 mg/kg): BQL (BQL = below quantification limit, 0.3 ng/mL for both) | Mean concentration of EFdA (day 21, single IM Example 42B 64 mg/kg): BQL (BQL = below quantification limit, 0.3 ng/mL for both) | Mean concentration of EFdA (day 28, single IM Example 42B 64 mg/kg): BQL (BQL = below quantification limit, 0.3 ng/mL for both) | Mean concentration of EFdA (day 35, single IM Example 42B 64 mg/kg): BQL (BQL = below quantification limit, 0.3 ng/mL for both) | Mean concentration of EFdA (day 42, single IM Example 42B 64 mg/kg): BQL (BQL = below quantification limit, 0.3 ng/mL for both) | Mean concentration of EFdA (day 49, single IM Example 42B 64 mg/kg): BQL (BQL = below quantification limit, 0.3 ng/mL for both) | Mean concentration of EFdA (day 56, single IM Example 42B 64 mg/kg): BQL (BQL = below quantification limit, 0.3 ng/mL for both) | Mean concentration of EFdA (day 63, single IM Example 42B 64 mg/kg): BQL (BQL = below quantification limit, 0.3 ng/mL for both) | Mean concentration of EFdA (day 70, single IM Example 42B 64 mg/kg): BQL (BQL = below quantification limit, 0.3 ng/mL for both) | Mean concentration of EFdA (day 77, single IM Example 42B 64 mg/kg): BQL (BQL = below quantification limit, 0.3 ng/mL for both) | Mean concentration of EFdA (day 84, single IM Example 42B 64 mg/kg): BQL (BQL = below quantification limit, 0.3 ng/mL for both)

C#C[C@]1(COP(=O)(N[C@@H](Cc2cc(F)cc(F)c2)C(=O)OCCCCCCCCCCCCCCCC)Oc2ccccc2)O[C@@H](n2cnc3c(N)nc(F)nc32)C[C@@H]1O (single isomer, unassigned) [Example 39A]
Mean concentration of EFdA (day 28, single IM Example 39A 58 mg/kg): BQL (BQL = below quantification limit, 0.3 ng/mL for both) | Mean concentration of EFdA (day 35, single IM Example 39A 58 mg/kg): BQL (BQL = below quantification limit, 0.3 ng/mL for both) | Mean concentration of EFdA (day 42, single IM Example 39A 58 mg/kg): BQL (BQL = below quantification limit, 0.3 ng/mL for both) | Mean concentration of EFdA (day 49, single IM Example 39A 58 mg/kg): BQL (BQL = below quantification limit, 0.3 ng/mL for both) | Mean concentration of EFdA (day 56, single IM Example 39A 58 mg/kg): BQL (BQL = below quantification limit, 0.3 ng/mL for both) | Mean concentration of EFdA (day 63, single IM Example 39A 58 mg/kg): BQL (BQL = below quantification limit, 0.3 ng/mL for both) | Mean concentration of EFdA (day 70, single IM Example 39A 58 mg/kg): BQL (BQL = below quantification limit, 0.3 ng/mL for both) | Mean concentration of EFdA (day 77, single IM Example 39A 58 mg/kg): BQL (BQL = below quantification limit, 0.3 ng/mL for both) | Mean concentration of EFdA (day 84, single IM Example 39A 58 mg/kg): BQL (BQL = below quantification limit, 0.3 ng/mL for both) | concentration at 1 day (male, Wistar Han, rat, in vivo, single IM Example 39A 58 mg/kg, read-out: Mean concentration of Example 39A): 17 ng/mL | concentration at 7 day (male, Wistar Han, rat, in vivo, day 7, single IM Example 39A 58 mg/kg, read-out: Mean concentration of Example 39A): 13.2 ng/mL | concentration at 14 day (male, Wistar Han, rat, in vivo, day 14, single IM Example 39A 58 mg/kg, read-out: Mean concentration of Example 39A): 6.43 ng/mL | concentration at 21 day (male, Wistar Han, rat, in vivo, day 21, single IM Example 39A 58 mg/kg, read-out: Mean concentration of Example 39A): 8.77 ng/mL | concentration at 28 day (male, Wistar Han, rat, in vivo, day 28, single IM Example 39A 58 mg/kg, read-out: Mean concentration of Example 39A): 7.98 ng/mL | concentration at 35 day (male, Wistar Han, rat, in vivo, day 35, single IM Example 39A 58 mg/kg, read-out: Mean concentration of Example 39A): 3.56 ng/mL | concentration at 42 day (male, Wistar Han, rat, in vivo, day 42, single IM Example 39A 58 mg/kg, read-out: Mean concentration of Example 39A): 2.61 ng/mL | concentration at 49 day (male, Wistar Han, rat, in vivo, day 49, single IM Example 39A 58 mg/kg, read-out: Mean concentration of Example 39A): 2.45 ng/mL | concentration at 56 day (male, Wistar Han, rat, in vivo, day 56, single IM Example 39A 58 mg/kg, read-out: Mean concentration of Example 39A): 3.42 ng/mL | concentration at 63 day (male, Wistar Han, rat, in vivo, day 63, single IM Example 39A 58 mg/kg, read-out: Mean concentration of Example 39A): 2.7 ng/mL | concentration at 70 day (male, Wistar Han, rat, in vivo, day 70, single IM Example 39A 58 mg/kg, read-out: Mean concentration of Example 39A): 1.68 ng/mL | concentration at 77 day (male, Wistar Han, rat, in vivo, day 77, single IM Example 39A 58 mg/kg, read-out: Mean concentration of Example 39A): 1.18 ng/mL | concentration at 84 day (male, Wistar Han, rat, in vivo, day 84, single IM Example 39A 58 mg/kg, read-out: Mean concentration of Example 39A): 1.39 ng/mL
